{
  "source": "paper PMC5860131",
  "about": "“Identification of natural products as novel ligands for the human 5-HT2C receptor” (Biophysics Reports, 2018)",
  "key": {"[1]": {"target": "T1, 5-HT2C receptor (Homo sapiens, UniProt P28335, DEL255-298/G251D/H250E/H252N/INS299[…]/L248D/M247A/M300L/T253W)", "T1 construct": "the N- and C-terminals were truncated by 39 and 65 residues, respectively; FLAG (N); PreScission protease site + 10× His (C); made in house; host or cells: Spodoptera frugiperda (Sf9), baculovirus", "T1 sequence (P28335 with tags, fused parts or gaps with the stated changes limits assumed)": "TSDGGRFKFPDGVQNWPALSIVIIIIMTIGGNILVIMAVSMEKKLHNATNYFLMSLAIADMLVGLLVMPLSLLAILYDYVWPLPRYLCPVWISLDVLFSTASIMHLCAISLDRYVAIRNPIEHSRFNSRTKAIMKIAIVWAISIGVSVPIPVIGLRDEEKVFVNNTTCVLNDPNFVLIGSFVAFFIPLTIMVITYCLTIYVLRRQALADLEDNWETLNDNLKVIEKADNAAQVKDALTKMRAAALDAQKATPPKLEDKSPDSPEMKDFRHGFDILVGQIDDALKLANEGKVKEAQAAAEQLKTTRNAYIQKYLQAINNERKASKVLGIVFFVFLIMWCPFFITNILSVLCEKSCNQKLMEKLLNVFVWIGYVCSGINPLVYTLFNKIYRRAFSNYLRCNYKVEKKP", "format": "binding"}, "[2]": {"test_system": "cortical pyramidal neurons", "experiment": "Whole-cell patch clamp recording of spontaneous synaptic current (SPSC) in brain slices", "format": "cell-based", "conditions": "30 μmol/L compound incubation, 10 μmol/L 5-HT; mouse brain slices", "description": "5-HT receptors play important roles in central and peripheral nervous systems. Malfunctions of these receptors have been linked to many neural disorders such as depression and psychosis. The effect of (–)-crebanine on changes in 5-HT induced synaptic transmission was evaluated by electrophysiological recording of mouse brain slices (Jang et al. [2012]). The spontaneous synaptic current (SPSC) of cortical pyramidal neurons was recorded in whole cell mode.\nCortical slices from ICR mouse of both genders (15–21 days) were prepared for electrophysiological recording. In brief, the animals were decapitated and brains were placed in cold sucrose artificial cerebrospinal fluid (sucrose-ASCF, in mmol/L: sucrose 213, KCl 2.5, NaH2PO4 1.25, NaHCO3 26, D-glucose 10, MgSO4 2, CaCl2 2, pH 7.4, 0–4 °C, saturated with 95% O2 and 5% CO2). The brains were cut into 280 or 300 μm slices with a vibratome (Leica VT1200S, Germany); slices were then incubated with ACSF (in mmol/L: NaCl 126, KCl 2.5, NaH2PO4 1.25, NaHCO3 26, D-glucose 25, MgSO4 2, CaCl2 2, pH 7.4, saturated with 95% O2 and 5% CO2) at room temperature for 1 h.\nA whole-cell patch clamp technique was used. […] Activity of cortical pyramidal neurons was recorded using an amplifier (HEKA EPC 10 USB, Germany) in the voltage clamp mode. […]"}, "[3]": {"target": "T2, 5-HT2C receptor (Homo sapiens, UniProt P28335)", "T2 construct": "expressed in transfected cells; host or cells: HEK 293T, stably transfected", "T2 sequence (P28335 33-458)": "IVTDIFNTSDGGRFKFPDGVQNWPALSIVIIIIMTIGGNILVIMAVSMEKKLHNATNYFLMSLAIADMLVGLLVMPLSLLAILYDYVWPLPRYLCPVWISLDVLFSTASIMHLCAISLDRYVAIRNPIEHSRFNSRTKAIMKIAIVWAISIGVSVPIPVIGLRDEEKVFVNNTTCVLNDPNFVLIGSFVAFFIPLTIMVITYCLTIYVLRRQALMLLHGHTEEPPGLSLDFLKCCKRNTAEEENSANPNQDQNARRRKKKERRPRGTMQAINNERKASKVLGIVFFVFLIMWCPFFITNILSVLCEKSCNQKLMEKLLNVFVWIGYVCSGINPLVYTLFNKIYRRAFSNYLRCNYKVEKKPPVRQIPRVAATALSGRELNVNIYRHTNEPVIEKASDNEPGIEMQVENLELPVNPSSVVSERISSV", "experiment": "Ca2+ mobilization assay (Fluo-4, FLIPR), HEK 293T cells stably transfected with 5-HT2C", "format": "cell-based", "text": "The 5-HT2C receptor mainly couples to Gαq proteins. The activated 5-HT2C receptor transmits the signals from the extracellular to the intercellular side using DAG/IP3 (diacyl glycerol/inositol 1,4,5-trisphosphate) as its second massagers (Hannon and Hoyer [2008]). IP3 stimulates the endoplasmic reticulum to release calcium ions into the cytoplasm, which causes the increase of calcium concentration in cytosol. Therefore, calcium mobilization assay is commonly applied to understand how unknown small molecule ligands of 5-HT2C receptor modulate cellular signal transductions. In this case, Fluo-4 Direct dye was used as a fluorescence indicator to detect calcium flux in G protein-coupled receptor expressed cells. The fold of maximum response over average of basal reading is plotted against compound concentration to determine the potency of the compounds (Fig. 3). […]. HEK 293T cells stably transfected with 5-HT2A/2B/2C receptor were seeded in 384-well plates at a density of 15,000 cells/well in DMEM containing 1% dialyzed FBS 8 h before the calcium flux assay. After removing medium, cells were then incubated (20 μl/well) for 1 h at 37 °C with Fluo-4 Direct dye (Invitrogen) reconstituted in FLIPR buffer (1× HBSS, 2.5 mmol/L probenecid, and 20 mmol/L HEPES, pH 7.4). After the dye loaded, cells were placed in a FLIPR^TETRA fluorescence imaging plate reader (Molecular Devices); drug dilutions, prepared at 3× final concentration in FLIPR buffer and aliquotted into 384-well plates, were also added to the FLIPR^TETRA. The fluidics module and plate reader of the FLIPR^TETRA were programmed to read baseline fluorescence for 10 s (1 read/s), then to add 10 μl of drug/well and to read for 6 min (1 read/s). Fluorescence in each well was normalized to the average of the first 10 reads (i.e., baseline fluorescence). Then, the maximum-fold increase, which occurred within 60 s after drug addition, over baseline fluorescence elicited by vehicle or drug was determined. […]"}},
  "data": [
    {"smiles": "COc1ccc2c(c1OC)C[C@@H]1c3c(cc4c(c3-2)OCO4)CCN1C", "note": "[Compound 1, (–)-crebanine]", "values": [
      {"measurement": "thermal shift value (∆Tm)", "setting": "[1]; CPM assay, comparing to apo-protein", "value": 9.25, "unit": "°C"},
      {"measurement": "(–)-Crebanine/CPM (Tm)", "setting": "[1]; WT receptor, n = 2", "value": 59.93, "unit": "°C"},
      {"measurement": "effect on 5-HT induced SPSC", "setting": "[2]", "value": "significantly attenuated"},
      {"measurement": "IC50", "setting": "[3]", "value": 0.149, "unit": "µM"}
    ]}
  ]
}
